According to ChEMBL document CHEMBL2146405, “Isomalyngamide A, A-1 and their analogs suppress cancer cell migration in vitro” (Eur J Med Chem, 2011):
One block for each compound: values may come before it. The source made the active and inactive calls. The calls are words filed in the database; no cut-off is given here.

Experiments:
[1] = Solubility of compound at 10 uM; assay type: physicochemical
[2] = system: MCF7; experiment: Antiproliferative activity against human MCF7 cells at 20 uM after 48 hrs by MTT assay; assay type: functional; settings: MCF7, 48 h
[3] = system: MDA-MB-231; experiment: Antiproliferative activity against human MDA-MB-231 cells at 20 uM after 48 hrs by MTT assay; assay type: functional; settings: MDA-MB-231, 48 h
[4] = system: MDA-MB-231; experiment: Antiproliferative activity against human MDA-MB-231 cells assessed as reduction in cell viability at 50 uM after 48 hrs by MTT assay; assay type: functional, cell-based
[5] = Inhibition of rat liver alpha 2,3-sialyltransferase
[6] = system: MDA-MB-231; experiment: cells; settings: Homo sapiens, MDA-MB-231, 16 h
Description: Antimetastatic activity in human MDA-MB-231 cells assessed as inhibition of serum-induced cellular migration after 16 hrs by Boyden chamber assay

[7] = biological target: Integrin beta-1 (Homo sapiens) (UniProt P05556); experiment: Inhibition of beta1-integrin in human MDA-MB-231 cells after 2 hrs by Western blot analysis; assay type: cell-based
[8] = biological target: Integrin beta-1 (Homo sapiens) (UniProt P05556); experiment: Inhibition of beta1-integrin in human MDA-MB-231 cells assessed as FAK protein level after 2 hrs by Western blot analysis; assay type: cell-based
[9] = biological target: Integrin beta-1 (Homo sapiens) (UniProt P05556); experiment: Inhibition of beta1-integrin in human MDA-MB-231 cells assessed as Akt protein level after 2 hrs by Western blot analysis; assay type: cell-based
[10] = biological target: Integrin beta-1 (Homo sapiens) (UniProt P05556); experiment: Inhibition of beta1-integrin in human MDA-MB-231 cells assessed as FAK phosphorylation at Tyr576/Tyr577 after 2 hrs by Western blot analysis; assay type: cell-based
[11] = biological target: Integrin beta-1 (Homo sapiens) (UniProt P05556); experiment: Inhibition of beta1-integrin in human MDA-MB-231 cells assessed as Akt phosphorylation at Ser473 after 2 hrs by Western blot analysis; assay type: cell-based
[12] = system: MCF7; experiment: Antiproliferative activity against human MCF7 cells after 48 hrs by MTT assay; assay type: functional, cell-based; settings: MCF7, 48 h
[13] = system: MDA-MB-231; experiment: Antiproliferative activity against human MDA-MB-231 cells after 48 hrs by MTT assay; assay type: functional, cell-based; settings: MDA-MB-231, 48 h
[14] = system: MDA-MB-231; experiment: Antimetastatic activity in human MDA-MB-231 cells assessed as inhibition of serum-induced cellular migration at 150 nM after 24 hrs by wound healing assay; assay type: functional, cell-based
[15] = system: MDA-MB-231; experiment: Antimetastatic activity in human MDA-MB-231 cells assessed as inhibition of cell migration-associated wound closure at 150 nM after 24 hrs of scratching by wound-healing assay; assay type: functional, cell-based
[16] = species on record: Rattus norvegicus; experiment: Inhibition of rat liver alpha 2,3-sialyltransferase at 100 uM

Sequence of Integrin beta-1 (Homo sapiens) (P05556 whole entry): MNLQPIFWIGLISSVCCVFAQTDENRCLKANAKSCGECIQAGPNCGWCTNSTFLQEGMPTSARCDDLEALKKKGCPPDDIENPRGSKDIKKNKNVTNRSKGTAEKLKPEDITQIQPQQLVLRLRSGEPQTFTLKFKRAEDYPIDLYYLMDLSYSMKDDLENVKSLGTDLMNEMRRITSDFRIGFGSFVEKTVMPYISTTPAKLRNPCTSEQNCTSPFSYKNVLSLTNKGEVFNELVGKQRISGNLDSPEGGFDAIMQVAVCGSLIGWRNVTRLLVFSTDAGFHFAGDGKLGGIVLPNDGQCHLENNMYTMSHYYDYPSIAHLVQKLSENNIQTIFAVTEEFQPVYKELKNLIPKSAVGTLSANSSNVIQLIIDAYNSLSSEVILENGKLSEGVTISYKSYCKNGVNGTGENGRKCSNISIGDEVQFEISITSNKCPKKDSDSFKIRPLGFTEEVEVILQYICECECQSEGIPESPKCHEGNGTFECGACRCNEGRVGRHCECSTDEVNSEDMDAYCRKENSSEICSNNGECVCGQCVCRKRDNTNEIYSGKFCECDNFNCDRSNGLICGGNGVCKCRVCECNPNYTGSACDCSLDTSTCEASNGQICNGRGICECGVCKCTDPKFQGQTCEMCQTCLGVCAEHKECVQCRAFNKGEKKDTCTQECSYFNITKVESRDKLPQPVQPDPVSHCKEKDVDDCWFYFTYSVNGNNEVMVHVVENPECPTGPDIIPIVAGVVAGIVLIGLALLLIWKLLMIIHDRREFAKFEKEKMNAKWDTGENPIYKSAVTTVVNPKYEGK

solubility [1]: Insoluble
SMILES: CCCCCCCCCCCCCC(=O)N1CC(OC)=CC1=O

IC50 [5]: 37 µM
IC50 [6]: 22.7 µM
SMILES: CCCCCCCCCCCCCC(=O)NCCNC(=O)C(C)(C)C(=O)NCC(=O)O
inhibition at 20 µM [2]: 7%
inhibition at 20 µM [3]: 0%
Activity [4]: inactive

inhibition [7]: Dose-dependent effect
inhibition [8]: Dose-dependent effect
inhibition [9]: Dose-dependent effect
inhibition [10]: Dose-dependent effect
inhibition [11]: Active
SMILES: CCCCCCCCCCCCCC(=O)NCCNC(=O)C(C)(C)C(=O)N1CC(=O)CC1=O

Continued, compound first:

SMILES: CCCCCCC[C@@H](C/C=C/CCC(=O)N(C)C/C(=C\Cl)C/C(=C\C(=O)N1CC(OC)=CC1=O)OC)OC [ISOMALYNGAMIDE A]
IC50 [12]: 4.6 µM
IC50 [13]: 2.8 µM
Activity [14]: Active
Activity [15]: Active
IC50 [5]: 77.2 µM
IC50 [6]: 0.06 µM

SMILES: COC1=CC(=O)NC1
inhibition at 20 µM [2]: 2%
inhibition at 20 µM [3]: 3%
inhibition [16]: inactive
